Measured values: PubChem BioAssay AID248 (DTP/NCI, 2004)
Where “and” joins values, the source holds several entries; their conditions need not be identical. Identical values can stand only once. Inconclusive results and toxic doses are left out.

Test system: L1210 leukemia ip in BDF1 mice, survival T/C
Test: NCI In Vivo Anticancer Drug Screen. Data for tumor model L1210 Leukemia (intraperitoneal) in B6D2F1 (BDF1) mice
Conditions: endpoint: mean survival time, higher = longer survival
Method in brief: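 Read-out is survival time, reported as the treated-group measurement over the vehicle-control measurement.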

[1] = dose: 15.0 mg/kg/injection, schedule: Q01DX Z (ip), vehicle: carboxymethylcellulose (CMC)
[2] = dose: 30.0 mg/kg/injection, schedule: Q01DX Z (ip), vehicle: carboxymethylcellulose (CMC)
[3] = dose: 60.0 mg/kg/injection, schedule: Q01DX Z (ip), vehicle: carboxymethylcellulose (CMC)
[4] = dose: 120.0 mg/kg/injection, schedule: Q01DX Z (ip), vehicle: carboxymethylcellulose (CMC)
[5] = dose: 100.0 mg/kg/injection, schedule: Q01DX009 (ip), vehicle: Klucel (hydroxypropylcellulose) (HPC)
[6] = dose: 100.0 mg/kg/injection, schedule: Q04DX003 (ip), vehicle: Klucel (hydroxypropylcellulose) (HPC)
[7] = dose: 200.0 mg/kg/injection, schedule: Q01DX009 (ip), vehicle: Klucel (hydroxypropylcellulose) (HPC)
[8] = dose: 200.0 mg/kg/injection, schedule: Q04DX003 (ip), vehicle: Klucel (hydroxypropylcellulose) (HPC)
[9] = dose: 400.0 mg/kg/injection, schedule: Q01DX009 (ip), vehicle: Klucel (hydroxypropylcellulose) (HPC)
[10] = dose: 400.0 mg/kg/injection, schedule: Q04DX003 (ip), vehicle: Klucel (hydroxypropylcellulose) (HPC)
[11] = dose: 100.0 mg/kg/injection, schedule: Q01DX001 (ip), vehicle: other
[12] = dose: 100.0 mg/kg/injection, schedule: Q01DX001 (ip), vehicle: saline
[13] = dose: 200.0 mg/kg/injection, schedule: Q01DX001 (ip), vehicle: saline
[14] = dose: 400.0 mg/kg/injection, schedule: Q01DX001 (ip), vehicle: saline
[15] = dose: 100.0 mg/kg/injection, schedule: Q04DX002 (ip), vehicle: Klucel (hydroxypropylcellulose) (HPC)
[16] = dose: 200.0 mg/kg/injection, schedule: Q04DX002 (ip), vehicle: Klucel (hydroxypropylcellulose) (HPC)
[17] = dose: 400.0 mg/kg/injection, schedule: Q04DX002 (ip), vehicle: Klucel (hydroxypropylcellulose) (HPC)
[18] = dose: 50.0 mg/kg/injection, schedule: Q01DX009 (ip), vehicle: saline with Tween-80
[19] = dose: 100.0 mg/kg/injection, schedule: Q01DX009 (ip), vehicle: saline with Tween-80
[20] = dose: 400.0 mg/kg/injection, schedule: Q01DX009 (ip), vehicle: saline with Tween-80

CC(C)c1ccc(/C(=N\N=C(N)N)C2CC2)cc1
T/C [1]: 93 % of control
T/C [2]: 95 % of control
T/C [3]: 92 % of control and 93 % of control
T/C [4]: 95 % of control and 96 % of control
T/C (dose: 120.0 mg/kg/injection, schedule: Q01DX Z (oral), vehicle: carboxymethylcellulose (CMC)): 101 % of control
T/C (dose: 240.0 mg/kg/injection, schedule: Q01DX Z (ip), vehicle: carboxymethylcellulose (CMC)): 93 % of control
T/C (dose: 240.0 mg/kg/injection, schedule: Q01DX Z (oral), vehicle: carboxymethylcellulose (CMC)): 110 % of control
T/C (dose: 480.0 mg/kg/injection, schedule: Q01DX Z (oral), vehicle: carboxymethylcellulose (CMC)): 102 % of control
T/C (dose: 960.0 mg/kg/injection, schedule: Q01DX Z (oral), vehicle: carboxymethylcellulose (CMC)): 102 % of control

Cc1ccc(NC(=S)NC(Cc2ccccc2)c2ccccc2)c(C)c1 (stereo not drawn)
T/C [5]: 106 % of control
T/C [6]: 98 % of control
T/C [7]: 87 % of control
T/C [8]: 96 % of control
T/C [9]: 101 % of control
T/C [10]: 98 % of control

CC(N)(CO)CO
T/C (dose: 100.0 mg/kg/injection, schedule: Q01DX009 (ip), vehicle: saline): 114 % of control
T/C (dose: 100.0 mg/kg/injection, schedule: Q04DX002 (ip), vehicle: saline): 90 % of control
T/C (dose: 200.0 mg/kg/injection, schedule: Q01DX009 (ip), vehicle: saline): 122 % of control
T/C (dose: 200.0 mg/kg/injection, schedule: Q04DX002 (ip), vehicle: saline): 103 % of control
T/C (dose: 400.0 mg/kg/injection, schedule: Q01DX009 (ip), vehicle: saline): 100 % of control
T/C (dose: 400.0 mg/kg/injection, schedule: Q04DX002 (ip), vehicle: saline): 103 % of control

Cn1c(=O)c(Br)c(N)c2ccccc21
T/C [11]: 101 % of control
T/C (dose: 200.0 mg/kg/injection, schedule: Q01DX001 (ip), vehicle: other): 101 % of control
T/C (dose: 400.0 mg/kg/injection, schedule: Q01DX001 (ip), vehicle: other): 101 % of control

CNc1cccc([N+](=O)[O-])c1
T/C [12]: 95 % of control
T/C [13]: 103 % of control

CCN(CC)CCOCCN(CC)CC
T/C (dose: 75.0 mg/kg/injection, schedule: Q01DX001 (ip), vehicle: saline): 98 % of control
T/C (dose: 150.0 mg/kg/injection, schedule: Q01DX001 (ip), vehicle: saline): 102 % of control

NC(=S)NN=C1CCCCCCCCCC1
T/C (dose: 50.0 mg/kg/injection, schedule: Q01DX001 (ip), vehicle: saline): 101 % of control
T/C [12]: 101 % of control
T/C [13]: 97 % of control
T/C [14]: 106 % of control

COc1ccc(NC(=O)NCc2ccc(C)c(C)c2)cc1
T/C [15]: 118 % of control
T/C [16]: 96 % of control
T/C [17]: 104 % of control

Cn1cc([N+](=O)[O-])cnc1=O
T/C [6]: 100 % of control
T/C [8]: 102 % of control
T/C [10]: 102 % of control

COC(=O)C1OC1c1cc(Cl)cc(Cl)c1OC (stereo not drawn)
T/C [12]: 100 % of control
T/C [13]: 106 % of control
T/C [14]: 101 % of control

CC(C)(CO)NCc1ccc(O)cc1
T/C (dose: 100.0 mg/kg/injection, schedule: Q01DX001 (ip), vehicle: carboxymethylcellulose (CMC)): 96 % of control
T/C (dose: 200.0 mg/kg/injection, schedule: Q01DX001 (ip), vehicle: carboxymethylcellulose (CMC)): 100 % of control
T/C (dose: 400.0 mg/kg/injection, schedule: Q01DX001 (ip), vehicle: carboxymethylcellulose (CMC)): 96 % of control

CC(=NCc1ccccc1)Nc1ccc(NC(=O)c2ccc(C(=O)Nc3ccc(NC(C)=NCc4ccccc4)cc3)cc2)cc1
T/C [1]: 92 % of control
T/C [2]: 103 % of control
T/C [3]: 95 % of control
T/C [4]: 97 % of control

CC12CC3(C)CC(C)(C1)CC(NC(=O)N(CCF)N=O)(C2)C3
T/C (dose: 30.0 mg/kg/injection, schedule: Q01DX001 (ip), vehicle: other): 113 % of control
T/C (dose: 40.0 mg/kg/injection, schedule: Q01DX001 (ip), vehicle: other): 117 % of control
T/C (dose: 187.0 mg/kg/injection, schedule: Q01DX001 (ip), vehicle: other): 151 % of control
T/C (dose: 375.0 mg/kg/injection, schedule: Q01DX001 (ip), vehicle: other): 87 % of control

CC(C)c1nc2c(=O)[nH]cnc2o1
T/C (dose: 25.0 mg/kg/injection, schedule: Q01DX005 (ip), vehicle: saline): 105 % of control
T/C (dose: 50.0 mg/kg/injection, schedule: Q01DX005 (ip), vehicle: saline): 107 % of control
T/C (dose: 100.0 mg/kg/injection, schedule: Q01DX005 (ip), vehicle: saline): 95 % of control and 102 % of control
T/C (dose: 200.0 mg/kg/injection, schedule: Q01DX005 (ip), vehicle: saline): 100 % of control

CN(C)C(=S)[S][Sb]([c]1ccccc1)[c]1ccccc1
T/C [11]: 96 % of control

O=C(COc1ccc(Cl)cc1Cl)Nc1ccccc1F
T/C [18]: 92 % of control
T/C [19]: 98 % of control and 87 % of control
T/C (dose: 200.0 mg/kg/injection, schedule: Q01DX009 (ip), vehicle: saline with Tween-80): 89 % of control
T/C [20]: 95 % of control

O=[N+]([O-])C(Cl)(CN1CCOCC1)CN1CCOCC1
T/C (dose: 11.1 mg/kg/injection, schedule: Q01DX Z (ip), vehicle: saline): 113 % of control
T/C (dose: 16.6 mg/kg/injection, schedule: Q01DX Z (ip), vehicle: saline): 91 % of control
T/C (dose: 25.0 mg/kg/injection, schedule: Q01DX Z (ip), vehicle: saline): 95 % of control

CN(C)C(=S)Oc1cc(Cl)c(Cl)cc1Cl
T/C [6]: 96 % of control
T/C [8]: 95 % of control
T/C [10]: 90 % of control

COC(=O)C(=O)CC(=O)c1ccc(Cl)cc1
T/C [15]: 100 % of control
T/C [16]: 106 % of control
T/C [17]: 95 % of control

O=C(COc1cccc(Cl)c1)Nc1cccnc1
T/C (dose: 12.0 mg/kg/injection, schedule: Q01DX009 (ip), vehicle: Klucel (hydroxypropylcellulose) (HPC)): 89 % of control
T/C (dose: 25.0 mg/kg/injection, schedule: Q01DX009 (ip), vehicle: Klucel (hydroxypropylcellulose) (HPC)): 98 % of control
T/C (dose: 50.0 mg/kg/injection, schedule: Q01DX009 (ip), vehicle: Klucel (hydroxypropylcellulose) (HPC)): 92 % of control
T/C [6]: 93 % of control
T/C [8]: 103 % of control
T/C [9]: 87 % of control

CCN(CC)CC(O)Cn1cnc2cncnc21 (stereo not drawn)
T/C (dose: 25.0 mg/kg/injection, schedule: Q04DX003 (ip), vehicle: saline): 98 % of control
T/C (dose: 50.0 mg/kg/injection, schedule: Q04DX003 (ip), vehicle: saline): 107 % of control
T/C (dose: 100.0 mg/kg/injection, schedule: Q04DX003 (ip), vehicle: saline): 98 % of control

CC1(C)CC(=O)CCS1
T/C [5]: 102 % of control
T/C [6]: 105 % of control
T/C [7]: 96 % of control
T/C [8]: 98 % of control
T/C [9]: 104 % of control
T/C [10]: 100 % of control

CC[CH2][Sn]([Cl])([Cl])[CH2]CC.Oc1ccccc1C=NCCN=Cc1ccccc1O
T/C (dose: 2.5 mg/kg/injection, schedule: Q01DX009 (ip), vehicle: saline with Tween-80): 101 % of control and 109 % of control
T/C (dose: 5.0 mg/kg/injection, schedule: Q01DX009 (ip), vehicle: saline with Tween-80): 113 % of control
T/C (dose: 6.6 mg/kg/injection, schedule: Q01DX009 (ip), vehicle: saline with Tween-80): 87 % of control

COc1ccc(C(SCC(NC(=O)OCc2ccccc2)C(=O)O)c2ccc(OC)cc2)cc1 (stereo not drawn)
T/C (dose: 75.0 mg/kg/injection, schedule: Q01DX001 (ip), vehicle: carboxymethylcellulose (CMC)): 91 % of control
T/C (dose: 150.0 mg/kg/injection, schedule: Q01DX001 (ip), vehicle: carboxymethylcellulose (CMC)): 91 % of control
T/C (dose: 300.0 mg/kg/injection, schedule: Q01DX001 (ip), vehicle: carboxymethylcellulose (CMC)): 89 % of control

CC(=O)c1cc(O)ccc1O
T/C (dose: 25.0 mg/kg/injection, schedule: Q01DX009 (ip), vehicle: saline with Tween-80): 96 % of control
T/C [18]: 98 % of control
T/C [19]: 98 % of control and 86 % of control
T/C [20]: 91 % of control

NC(=O)COc1ccccc1Cl
T/C (dose: 50.0 mg/kg/injection, schedule: Q04DX003 (ip), vehicle: Klucel (hydroxypropylcellulose) (HPC)): 102 % of control
T/C [6]: 94 % of control
T/C [8]: 93 % of control
